Assay results taken from patent US4578398A, “Substituted 2,3,4,9-tetrahydro-1H-carbazole-1-acetic acid, compositions and use” (American Home Products Corporation, priority 1985, dated 1986).

What was measured:
[1] = test system: Phenylquinone Writhing; assay: Drug effects in phenylquinone-induced writhing in mice; assay type: in vivo, Male Swiss albino mice; conditions: p.o., mouse, 60 min before phenylquinone i.p., writhes counted 15 min
Procedure: A further test used to determine the utility of the compounds of the present invention is designated: DRUG EFFECTS IN PHENYLQUINONE-INDUCED WRITHING IN MICE.
The objective of this test is to determine the ability of test drugs to inhibit the nociceptive (pain) response of mice injected with a chemical irritant. This test is a primary screen for both peripheral and centrally acting analgesic drugs.
Male Swiss albino mice (15-25 g). The animals are fasted for 18 hours prior to use but have free access to water.
Drug Preparation and Administration:
Drugs are dissolved or suspended according to their solubility in 0.5% methyl cellulose or 0.5% Tween 80. They are administered by gastric lavage in a volume of 5 ml/kg. For primary screening all drugs are administered at the arbitrary dosage of 200 mg/kg, p.o. to a group of 10 mice.
A modification of the method of Siegmund et al., Proc. Soc. Exp. Biol. Med., 95, 729-731 (1957) is used. Groups of 5 mice are dosed with the test compound or vehicle control. Sixty minutes later the animals are injected i.p. with 0.3 ml/20 g body weight of a 0.02% solution of phenylquinone (PBQ; 2-phenyl-1,4-benzoquinone) and placed in individual observation boxes. The number of writhing or abdominal squirming movements made by each mouse during the following 15 min. period is counted. The experiment is repeated with another group of 5 mice and the mean number of writhes per mouse for a group of 10 mice is calculated.
Drug treated and vehicle-treated control groups are compared and the percentage protection conferred by the drug is calculated: [formula] where c=mean number of writhes in the control group where t=mean number of writhes in the test drug group

[2] = test system: Adjuvant Edema; assay: Preventative Adjuvant Edema (Freund's complete adjuvant, hind paw edema volume in rats); assay type: in vivo, Male Sprague Dawley rats; conditions: p.o., rat, dosed day 0, 1 and 2, edema volume day 3
Procedure: This test is a primary screen for anti-inflammatory drugs.
Male Sprague Dawley rats (180-200 g) are used. The animals have free access water but food is withdrawn 18 hours before testing.
Drug Preparations and Administration:
Freund's complete adjuvant is prepared by suspending 5 mg killed and dried Mycobacterium butyricum (Difco) in 1 ml liquid paraffin. The test compounds are dissolved in distilled water or suspended in distilled water with a few drops of Tween 80 according to their solubility. […]
The method is essentially that described by Wax et al., J. Pharmacol. Exp. Ther., 192, 166-171 (1975). Groups of rats are injected intradermally in the left hind paw with 0.1 ml of Freund's complete adjuvant. The test compound or vehicle is administered immediately before the adjuvant, 24 hours and 48 hours after the adjuvant (day 0, 1 and 2). The injected hind paw volume is measured before the injection of adjuvant and 24 hrs. after the last drug administration (day 3) by means of a plethysmometer (Buxco Electronics Inc.). The difference between the hind paw volume on day 0 and day 3 represents the edema volume. Phenylbutazone (50 mg./kg, p.o.) is included as a positive control.
The mean edema volume (expressed as ml±SEM) is calculated for each group and the percentage protection conferred by the drug is calculated: [formula] where c is the mean edema volume for the untreated controls and t is the mean edema volume for the drug treated group.

C=CC1CCC(CC)(CC(=O)O)c2[nH]c3c(CC)cccc3c21 (single isomer, unassigned) [Example 1 g, 4-Ethenyl-1,8-diethyl-2,3,4,9-tetrahydro-1H-carbazole-1-acetic Acid]
% Inhibition (Phenylquinone Writhing in Mice) ([1]; 25 mg/kg): 21%
% Inhibition (Preventative Adjuvant Edema) ([2]; 25 mg/kg): 30%

C=CC1CCC(CC)(CC(=O)O)c2[nH]c3c(CC)cccc3c21 (single isomer, unassigned) [Example 1 h, 4-Ethenyl-1,8-diethyl-2,3,4,9-tetrahydro-1H-carbazole-1-acetic Acid]
% Inhibition (Phenylquinone Writhing in Mice) ([1]; 25 mg/kg): 0%
% Inhibition (Preventative Adjuvant Edema) ([2]; 25 mg/kg): 62%

CCc1cccc2c3c([nH]c12)C(CC)(CC(=O)O)CCC3c1ccccc1 (single isomer, unassigned) [Example 2 d, 1,8-Diethyl-2,3,4,9-tetrahydro-4-phenyl-1H-carbazole-1-acetic Acid]
% Inhibition (Phenylquinone Writhing in Mice) ([1]; 25 mg/kg): 17%
% Inhibition (Preventative Adjuvant Edema) ([2]; 25 mg/kg): 12%

CCc1cccc2c3c([nH]c12)C(CC)(CC(=O)O)CCC3c1ccccc1 (single isomer, unassigned) [Example 2 e, 1,8-Diethyl-2,3,4,9-tetrahydro-4-phenyl-1H-carbazole-1-acetic acid]
% Inhibition (Phenylquinone Writhing in Mice) ([1]; 25 mg/kg): 28%
% Inhibition (Preventative Adjuvant Edema) ([2]; 25 mg/kg): 37%

C=C(C)C1CCC(CC)(CC(=O)O)c2[nH]c3c(CC)cccc3c21 (single isomer, unassigned) [Example 3 d, 4-(1-Methylethenyl)-1,8-diethyl-2,3,4,9-tetrahydro-1H-carbazole-1-acetic Acid]
% Inhibition (Phenylquinone Writhing in Mice) ([1]; 200 mg/kg): 50%
% Inhibition (Preventative Adjuvant Edema) ([2]; 50 mg/kg): 25%

C=C(C)C1CCC(CC)(CC(=O)O)c2[nH]c3c(CC)cccc3c21 (single isomer, unassigned) [Example 3 e, 4-(1-Methylethenyl)-1,8-diethyl-2,3,4,9-tetrahydro-1H-carbazole-1-acetic Acid]
% Inhibition (Phenylquinone Writhing in Mice) ([1]; 25 mg/kg): 0%
% Inhibition (Preventative Adjuvant Edema) ([2]; 25 mg/kg): 46%
